Laboratory results as given in patent US8921267B2, “Safening 6-(trisubstituted phenyl)-4-amino-2-pyridinecarboxylate herbicide injury on cereal crops” (Dow AgroSciences LLC, priority 2008, dated 2014).

Columns and labels:
[1] = system: wheat (Triticum aestivum L; TRZAW); test: Postemergence herbicidal safening, greenhouse, visual injury: wheat (TRZAW); assay type: in vivo
Procedure: (§1) Evaluation of Postemergence Herbicidal Safening in Cereal Crops
(§2) Seeds of the desired test plant species were planted in Sun Gro MetroMix® 306 planting mixture, which typically has a pH of 6.0 to 6.8 and an organic matter content of about 30 percent, in plastic pots with a surface area of 103.2 square centimeters (cm^2). When required to ensure good germination and healthy plants, a fungicide treatment and/or other chemical or physical treatment was applied. The plants were grown for 7-36 days (d) in a greenhouse with an approximate 14-hour (h) photoperiod which was maintained at about 18° C. during the day and 17° C. during the night. Nutrients and water were added on a regular basis and supplemental lighting was provided with overhead metal halide 1000-Watt lamps as necessary. The plants were employed for testing when they reached the second or third true leaf stage.
(§3) Weighed amounts of esters (methyl) or salts (TEA [triethylammonium], K [potassium]) of 4-amino-3-chloro-6-(4-chloro-2-fluoro-3-methoxyphenyl)pyridine-2-carboxylic acid (Compound 1) were dissolved in a volume of 97:3 volume/volume (v/v) acetone/dimethylsulfoxide (DMSO) to obtain stock solutions. […] The concentrated stock solutions were diluted with an aqueous mixture of 1.5% v/v of Agri-dex crop oil concentrate to provide the appropriate application rates. Compound requirements are based upon a 12 mL application volume at a rate of 187 liters per hectare (L/ha). Stocks solutions of the safeners were prepared following the same procedure. Spray solutions of the safeners and experimental compound mixtures were prepared by adding the stock solutions to the appropriate amount of dilution solution to form a 12 mL spray solution with active ingredients in two-way combinations. Formulated compounds were applied to the plant material with an overhead Mandel track sprayer equipped with 8002E nozzles calibrated to deliver 187 L/ha over an application area of 0.503 square meters (m^2) at a spray height of 18 inches (43 centimeters (cm)) above average plant canopy. Control plants were sprayed in the same manner with the solvent blank.
(§4) The treated plants and control plants were placed in a greenhouse as described above and watered by sub-irrigation to prevent wash-off of the test compounds. After 20-22 d, the condition of the test plants as compared with that of the control plants was determined visually and scored on a scale of 0 to 100 percent where 0 corresponds to no injury and 100 corresponds to complete kill.
(§5) Colby's equation was used to determine the herbicidal effects expected from the mixtures (Colby, S. R. Calculation of the synergistic and antagonistic response of herbicide combinations. Weeds 1967, 15, 20-22.).
(§6) The following equation was used to calculate the expected activity of mixtures containing two active ingredients, A and B: Expected=A+B−(A×B/100)
(§7) A=observed efficacy of active ingredient A at the same concentration as used in the mixture.
(§8) B=observed efficacy of active ingredient B at the same concentration as used in the mixture.

[2] = system: barley (HORVW); test: Postemergence herbicidal safening, greenhouse, visual injury: barley (HORVW)
[3] = system: bird's-eye speedwell (Veronica persica L; VERPE); test: Postemergence herbicidal activity, greenhouse, visual injury: bird's-eye speedwell; assay type: in vivo; design: key: visual injury, 0–100%: 0 = no injury, 100 = complete kill
Procedure: as §1, §2, §3, §4, §5, §6, §7, §8

[4] = system: wild buckwheat (Polygonum convolvulus L; POLCO); test: Postemergence herbicidal activity, greenhouse, visual injury: wild buckwheat; assay type: in vivo
Procedure: as §1, §2, §3, §4, §5, §6, §7, §8

[5] = system: durum wheat (Triticum durum L; TRZDU); test: Postemergence herbicidal safening, greenhouse, visual injury: durum wheat; assay type: in vivo
Procedure: as §1, §2, §3, §4, §5, §6, §7, §8

[6] = system: wild pansy (Viola tricolor L; VIOTR); test: Postemergence herbicidal activity, greenhouse, visual injury: wild pansy; assay type: in vivo; design: key: visual injury, 0–100%: 0 = no injury, 100 = complete kill
Procedure: as §1, §2, §3, §4, §5, §6, §7, §8

[7] = system: Russian thistle (Salsola iberica L; SASKR); test: Postemergence herbicidal activity, greenhouse, visual injury: Russian thistle; assay type: in vivo; design: key: visual injury, 0–100%: 0 = no injury, 100 = complete kill
Procedure: as §1, §2, §3, §4, §5, §6, §7, §8

[8] = system: purple deadnettle (Lamium purpureum L; LAMPU); test: Postemergence herbicidal activity, greenhouse, visual injury: purple deadnettle; assay type: in vivo; design: key: visual injury, 0–100%: 0 = no injury, 100 = complete kill
Outline: (§9)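 Greenhouse-grown weeds at second–third true leaf stage were sprayed postemergence at 187 L/ha with safener/herbicide two-way mixtures in 1.5% v/v crop oil concentrate. Visual injury was scored 0–100% against solvent-blank controls after 20-22 d. Expected mixture activity was computed by Colby's equation.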

[9] = system: corn poppy (Papaver rhoeas L; PAPRH); test: Postemergence herbicidal activity, greenhouse, visual injury: corn poppy; assay type: in vivo
Outline: as §9

[10] = system: wheat (Triticum aestivum L; TRZAS); test: Postemergence herbicidal safening, greenhouse, visual injury: wheat; assay type: in vivo
Outline: (§10)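 Percent visual injury relative to solvent-blank controls, rated 20-22 d after treatment on a 0 (none) to 100 (complete kill) scale. Expected mixture response came from Colby's equation, Expected=A+B−(A×B/100). Sprays contained 1.5% v/v crop oil concentrate at 187 L/ha.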

[11] = system: barley (Hordeum vulgare L; HORVS); test: Postemergence herbicidal safening, greenhouse, visual injury: barley; assay type: in vivo
Outline: as §10

[12] = system: chickweed (Stellaria media L; STEME); test: Postemergence herbicidal activity, greenhouse, visual injury: chickweed; assay type: in vivo; design: key: visual injury, 0–100%: 0 = no injury, 100 = complete kill
Procedure: as §1, §2, §3, §4, §5, §6, §7, §8

[13] = system: cleavers (Galium aparine L; GALAP); test: Postemergence herbicidal activity, greenhouse, visual injury: cleavers; assay type: in vivo; design: key: visual injury, 0–100%: 0 = no injury, 100 = complete kill
Procedure: as §1, §2, §3, §4, §5, §6, §7, §8

## CC1COc2ccccc2N1C(=O)C(Cl)Cl (racemic) [Benoxacor, (±)-4-(dichloroacetyl)-3,4-dihydro-3-methyl-2H-1,4-benzoxazine, reference compound]
[1]; safener 4.4 g/ha alone
  TRZAW Ob (Observed values): 0%
[1]; safener 8.8 g/ha alone
  TRZAW Ob (Observed values): 0%
[1]; safener 17.5 g/ha alone
  TRZAW Ob (Observed values): 0%
[1]; safener 35 g/ha alone
  TRZAW Ob (Observed values): 0%
[2]; safener 4.4 g/ha alone
  HORVW Ob (Observed values): 0%
[2]; safener 8.8 g/ha alone
  HORVW Ob (Observed values): 0%
[2]; safener 17.5 g/ha alone
  HORVW Ob (Observed values): 0%
[2]; safener 35 g/ha alone
  HORVW Ob (Observed values): 0%
[3]; applied alone at 17.5 g/ha
  VERPE Ob: 0%
[3]; applied alone at 35 g/ha
  VERPE Ob: 0%
[3]; applied alone at 70 g/ha
  VERPE Ob: 0%
[3]; applied alone at 140 g/ha
  VERPE Ob: 0%
[4]; applied alone at 17.5 g/ha
  POLCO Ob: 0%
[4]; applied alone at 35 g/ha
  POLCO Ob: 0%
[4]; applied alone at 70 g/ha
  POLCO Ob: 0%
[4]; applied alone at 140 g/ha
  POLCO Ob: 0%
[5]; safener 4.4 g/ha alone
  TRZDU Ob (Observed values): 0%
[5]; safener 8.8 g/ha alone
  TRZDU Ob (Observed values): 0%
[5]; safener 17.5 g/ha alone
  TRZDU Ob (Observed values): 0%
[5]; safener 35 g/ha alone
  TRZDU Ob (Observed values): 0%
[6]; applied alone at 17.5 g/ha
  VIOTR Ob: 0%
[6]; applied alone at 35 g/ha
  VIOTR Ob: 0%
[6]; applied alone at 70 g/ha
  VIOTR Ob: 0%
[6]; applied alone at 140 g/ha
  VIOTR Ob: 0%
[7]; applied alone at 17.5 g/ha
  SASKR Ob: 0%
[7]; applied alone at 35 g/ha
  SASKR Ob: 0%
[7]; applied alone at 70 g/ha
  SASKR Ob: 0%
[7]; applied alone at 140 g/ha
  SASKR Ob: 0%
[8]; safener 4.4 g/ha alone
  LAMPU Ob (Observed values): 0
[8]; safener 8.8 g/ha alone
  LAMPU Ob (Observed values): 0
[8]; safener 17.5 g/ha alone
  LAMPU Ob (Observed values): 0
[8]; safener 35 g/ha alone
  LAMPU Ob (Observed values): 0
[9]; applied alone at 17.5 g/ha
  PAPRH Ob: 0%
[9]; applied alone at 35 g/ha
  PAPRH Ob: 0%
[9]; applied alone at 70 g/ha
  PAPRH Ob: 0%
[9]; applied alone at 140 g/ha
  PAPRH Ob: 0%
[9]; safener 4.4 g/ha alone
  PAPRH Ob (Observed values): 0
[9]; safener 8.8 g/ha alone
  PAPRH Ob (Observed values): 0
[9]; safener 17.5 g/ha alone
  PAPRH Ob (Observed values): 0
[9]; safener 35 g/ha alone
  PAPRH Ob (Observed values): 0
[10]; applied alone at 17.5 g/ha
  TRZAS Ob: 0%
[10]; applied alone at 35 g/ha
  TRZAS Ob: 0%
[10]; applied alone at 70 g/ha
  TRZAS Ob: 0%
[10]; applied alone at 140 g/ha
  TRZAS Ob: 0%
[11]; applied alone at 17.5 g/ha
  HORVS Ob: 0%
[11]; applied alone at 35 g/ha
  HORVS Ob: 0%
[11]; applied alone at 70 g/ha
  HORVS Ob: 0%
[11]; applied alone at 140 g/ha
  HORVS Ob: 0%
[12]; applied alone at 17.5 g/ha
  STEME Ob: 0%
[12]; applied alone at 35 g/ha
  STEME Ob: 0%
[12]; applied alone at 70 g/ha
  STEME Ob: 0%
[12]; applied alone at 140 g/ha
  STEME Ob: 0%
[13]; applied alone at 17.5 g/ha
  GALAP Ob: 0%
[13]; applied alone at 35 g/ha
  GALAP Ob: 0%
[13]; applied alone at 70 g/ha
  GALAP Ob: 0%
[13]; applied alone at 140 g/ha
  GALAP Ob: 0%
